Patent publication US20140107316A1, “DRUG DELIVERY CONJUGATES CONTAINING UNNATURAL AMINO ACIDS AND METHODS FOR USING” (priority 2012, published 2014)
“Also recorded” adds a separate entry of the source. Like-named read-outs stand apart in the source and are kept apart here.

Columns and labels:
KB tumors = test: KB tumor assay in nu/nu mice; details: for CR (%) / Cures (%) / PR (%) / Toxicity Avg. Weight Loss / Toxicity Deaths (%): TIW, 2 weeks
Protocol: Inhibition of Tumor Growth in Mice. Four to seven week-old mice (Balb/c or nu/nu strains) were purchased from Harlan Sprague Dawley, Inc. (Indianapolis, Ind.). Normal rodent chow contains a high concentration of folic acid (6 mg/kg chow); accordingly, mice used were maintained on the folate-free diet (Harlan diet #TD00434) for 1 week before tumor implantation to achieve serum folate concentrations close to the range of normal human serum. For tumor cell inoculation, 1×10^6 M109 cells (Balb/c strain) or 1×10^6 KB cells (nu/nu strain) in 100 μL were injected in the subcutis of the dorsal medial area. Tumors were measured in two perpendicular directions every 2-3 days using a caliper, and their volumes were calculated as 0.5×L×W^2, where L=measurement of longest axis in mm and W=measurement of axis perpendicular to L in mm. […] Dosing solutions were prepared fresh each day in PBS and administered through the lateral tail vein of the mice.
General KB Tumor Assay. The anti-tumor activity of the compounds described herein, when administered intravenously (i.v.) to tumor-bearing animals, was evaluated in nu/nu mice bearing subcutaneous KB tumors. Approximately 8 days post tumor inoculation in the subcutis of the right axilla with 1×10^6 KB cells (average tumor volume at to=50-100 mm^3), in mice (5/group) were injected i.v. three times a week (TIW), for 3 weeks with […] of the drug delivery conjugate or with an equivalent dose volume of PBS (control), unless otherwise indicated. Tumor growth was measured using calipers at 2-day or 3-day intervals in each treatment group. Tumor volumes were calculated using the equation V=a×b^2/2, where “a” is the length of the tumor and “b” is the width expressed in millimeters.
Toxicity as Measured by Weight Loss. The percentage weight change of the mice was determined in mice (5 mice/group) on selected days post-tumor inoculation (PTI), and graphed.
In vivo activity against tumors.

cells in culture = test: Cytotoxicity to cells in culture; format: cell-based; details: read-out: typical IC50, cells in culture
[1] = test system: folate receptor-positive KB cells; details: for In vitro specificity (fold): difference in IC50 between competed and non-competed group
Protocol: Inhibition of Cellular DNA Synthesis. The compounds described herein were evaluated using an in vitro cytotoxicity assay that predicts the ability of the drug to inhibit the growth of folate receptor-positive KB cells. The compounds were comprised of folate linked to a respective chemotherapeutic drug, as prepared according to the protocols described herein. The KB cells were exposed for up to 7 h at 37° C. to the indicated concentrations of folate-drug conjugate in the absence or presence of at least a 100-fold excess of folic acid. The cells were then rinsed once with fresh culture medium and incubated in fresh culture medium for 72 hours at 37° C. Cell viability was assessed using a ^3H-thymidine incorporation assay.
In vitro test against the various cancer cell lines. Cells are heavily seeded in 24-well Falcon plates and allowed to form nearly confluent monolayers overnight. Thirty minutes prior to the addition of the test compound, spent medium is aspirated from all wells and replaced with fresh folate-deficient RPMI medium (FFRPMI). A subset of wells are designated to receive media containing 100 μM folic acid. The cells in the designated wells are used to determine the targeting specificity. […] Following one rinse with 1 mL of fresh FFRPMI containing 10% heat-inactivated fetal calf serum, each well receives 1 mL of medium containing increasing concentrations of test compound (4 wells per sample) in the presence or absence of 100 μM free folic acid as indicated. Treated cells are pulsed for 2 h at 37° C., rinsed 4 times with 0.5 mL of media, and then chased in 1 mL of fresh medium up to 70 h. Spent medium is aspirated from all wells and replaced with fresh medium containing 5 μCi/mL ^3H-thymidine. Following a further 2 h 37° C. incubation, cells are washed 3 times with 0.5 mL of PBS and then treated with 0.5 mL of ice-cold 5% trichloroacetic acid per well. After 15 min, the trichloroacetic acid is aspirated and the cell material solubilized by the addition of 0.5 mL of 0.25 N sodium hydroxide for 15 min. A 450 μL aliquot of each solubilized sample is transferred to a scintillation vial containing 3 mL of Ecolume scintillation cocktail and then counted in a liquid scintillation counter. Final tabulated results are expressed as the percentage of ^3H-thymidine incorporation relative to untreated controls.
Folate receptor expressing cells. […] EC1456 was evaluated from 0.1-100 nM.

folate receptors (FRs) = target: T1, folate receptors (FRs) (Homo sapiens, UniProt P15328); test: Relative affinity assay (3H-folic acid displacement on KB cells); format: binding; details: compared to folic acid (relative affinity=1), 10% serum/FDRPMI
T1 construct: FR-positive KB cells were heavily seeded into 24-well cell culture plates; endogenous in cells; host or cells: KB cells (human cervical carcinoma)
Protocol: Relative Affinity Assay. The affinity for folate receptors (FRs) relative to folate was determined according to a previously described method (Westerhof, G. R., J. H. Schornagel, et al. (1995) Mol. Pharm. 48: 459-471) with slight modification. Briefly, FR-positive KB cells were heavily seeded into 24-well cell culture plates and allowed to adhere to the plastic for 18 h. Spent incubation media was replaced in designated wells with folate-free RPMI (FFRPMI) supplemented with 100 nM ^3H-folic acid in the absence and presence of increasing concentrations of test article or folic acid. Cells were incubated for 60 min at 37° C. and then rinsed 3 times with PBS, pH 7.4. Five hundred microliters of 1% SDS in PBS, pH 7.4, were added per well. Cell lysates were then collected and added to individual vials containing 5 mL of scintillation cocktail, and then counted for radioactivity. Negative control tubes contained only the ^3H-folic acid in FFRPMI (no competitor). Positive control tubes contained a final concentration of 1 mM folic acid, and CPMs measured in these samples (representing non-specific binding of label) were subtracted from all samples.

KB-CR tumors = test: Cisplatin-resistant KB-CR tumor model; format: in vivo; details: 3 mg/kg, twice per week (T/Th), 2 weeks
[2] = Maximum tolerated dose (MTD); format: in vivo, female Sprague-Dawley rats; details: rat, in vivo, iv, BIW, 2 wks
From the text: Maximum tolerated dose (MTD). […] For Example, EC1456 has a MTD of at least 0.51 μmol/kg and EC0531 has a MTD of 0.33 μmol/kg, […] when administered by i.v., BIW, 2 wks in female Sprague-Dawley rats. Histopathologic changes were not observed with doses of EC1456 at or below the MTD.

[3] = read-out: 50% competition, competed group (excess folic acid)

T1 sequence (P15328 25-234): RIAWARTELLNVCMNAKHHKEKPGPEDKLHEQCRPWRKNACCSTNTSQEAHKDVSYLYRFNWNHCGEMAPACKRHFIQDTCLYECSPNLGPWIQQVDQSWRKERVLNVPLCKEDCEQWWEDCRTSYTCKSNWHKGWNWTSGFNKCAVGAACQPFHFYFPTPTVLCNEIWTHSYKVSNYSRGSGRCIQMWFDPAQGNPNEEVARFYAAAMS

SMILES	In vitro specificity (fold) [1] [fold]	IC50 [1, 3] [nM]	IC50 ([1]; read-out: In vitro IC50) [nM]	In vivo activity (KB tumors)	Relative Affinity (folate receptors (FRs))	also measured
CCCCOCN(C(=O)[C@@H](NC(=O)[C@H]1CCCCN1C)C(C)CC)[C@H](C[C@@H](OC(C)=O)c1nc(C(=O)N[C@@H](Cc2ccc(O)cc2)C[C@H](C)C(=O)NNC(=O)OCCSSC[C@@H](NC(=O)[C@H](CCC(=O)NC[C@H](O)[C@@H](O)[C@H](O)[C@H](O)CO)NC(=O)[C@@H](CCC(=O)O)NC(=O)[C@H](CCC(=O)NC[C@H](O)[C@@H](O)[C@H](O)[C@H](O)CO)NC(=O)[C@@H](CCC(=O)O)NC(=O)[C@H](CCC(=O)NC[C@H](O)[C@@H](O)[C@H](O)[C@H](O)CO)NC(=O)CC[C@@H](NC(=O)c2ccc(NCc3cnc4nc(N)[nH]c(=O)c4n3)cc2)C(=O)O)C(=O)O)cs1)C(C)C (some centres unmarked) [EC1663]	–	–	–	–	–	whole animal toxicity (KB tumors; 0.5 μmol/kg TIW, 2 wk, compared to PBS control): did not exhibit significant host animal toxicity; also recorded: does not show any evidence of whole animal toxicity; partial responses (test animals) (KB tumors; intravenously 0.5 μmol/kg TIW, 2 wk): 4/4
CCCC(=O)OCN(C(=O)[C@@H](NC(=O)[C@H]1CCCCN1C)[C@@H](C)CC)[C@H](C[C@@H](OC(C)=O)c1nc(C(=O)N[C@@H](Cc2ccc(O)cc2)C[C@H](C)C(=O)O)cs1)C(C)C [Tubulysin B, tubulysin B]	–	–	–	–	–	IC50 (cells in culture): ~1 nM; CR (%) (KB tumors; 0.1 μmol/kg (4 doses)): 0%; Cures (%) (KB tumors; 0.1 μmol/kg (4 doses)): 0%; PR (%) (KB tumors; 0.1 μmol/kg (4 doses)): 0%; Toxicity Avg. Weight Loss (KB tumors; 0.1 μmol/kg (4 doses)): >20%; Toxicity Deaths (%) (KB tumors; 0.1 μmol/kg (4 doses)): 100%; CR (%) (KB tumors; 0.2 μmol/kg (3 doses)): 0%; Cures (%) (KB tumors; 0.2 μmol/kg (3 doses)): 0%; PR (%) (KB tumors; 0.2 μmol/kg (3 doses)): 0%; Toxicity Avg. Weight Loss (KB tumors; 0.2 μmol/kg (3 doses)): >18%; Toxicity Deaths (%) (KB tumors; 0.2 μmol/kg (3 doses)): 100%; CR (%) (KB tumors; 0.5 μmol/kg (1 dose)): 0%; Cures (%) (KB tumors; 0.5 μmol/kg (1 dose)): 0%; PR (%) (KB tumors; 0.5 μmol/kg (1 dose)): 0%; Toxicity Avg. Weight Loss (KB tumors; 0.5 μmol/kg (1 dose)): >15%; Toxicity Deaths (%) (KB tumors; 0.5 μmol/kg (1 dose)): 100%; toxicity in relation to anti-tumor effect in mice (KB tumors; mouse, in vivo): dose-limiting toxicities in mice at levels that did not produce measurable anti-tumor effect
CCCC(=O)OCN(C(=O)[C@@H](NC(=O)[C@H]1CCCCN1C)C(C)CC)[C@H](C[C@@H](OC(C)=O)c1nc(C(=O)N[C@@H](Cc2ccc(O)cc2)C[C@H](C)C(=O)NNC(=O)OCCSSC[C@@H](NC(=O)[C@@H](CC(=O)O)NC(=O)[C@@H](CC(=O)O)NC(=O)[C@@H](CCCNC(=N)N)NC(=O)[C@@H](CC(=O)O)NC(=O)CC[C@@H](NC(=O)c2ccc(NCc3cnc4nc(N)[nH]c(=O)c4n3)cc2)C(=O)O)C(=O)O)cs1)C(C)C (some centres unmarked) [EC1299]	778	700	0.9	Complete	0.29	–
CCCC(=O)OCN(C(=O)[C@@H](NC(=O)[C@H]1CCCCN1C)C(C)CC)C(C[C@@H](OC(C)=O)c1nc(C(=O)N[C@@H](Cc2ccc(O)cc2)C[C@H](C)C(=O)NNC(=O)OCCSSC[C@@H](NC(=O)[C@@H](CC(=O)O)NC(=O)[C@H](CC(=O)O)NC(=O)[C@H](CCCNC(=N)N)NC(=O)[C@H](CC(=O)O)NC(=O)CC[C@H](NC(=O)c2ccc(NCc3cnc4nc(N)[nH]c(=O)c4n3)cc2)C(=O)O)C(=O)O)cs1)C(C)C (some centres unmarked) [EC1549]	78	350	4.5	Complete	0.90	–
CCCC(=O)OCN(C(=O)[C@@H](NC(=O)[C@H]1CCCCN1C)C(C)CC)[C@H](C[C@@H](OC(C)=O)c1nc(C(=O)N[C@@H](Cc2ccc(O)cc2)C[C@H](C)C(=O)NNC(=O)OCCSSC(C)(C)[C@@H](NC(=O)[C@@H](CC(=O)O)NC(=O)[C@@H](CC(=O)O)NC(=O)[C@@H](CCCNC(=N)N)NC(=O)[C@@H](CC(=O)O)NC(=O)CC[C@@H](NC(=O)c2ccc(NCc3cnc4nc(N)[nH]c(=O)c4n3)cc2)C(=O)O)C(=O)O)cs1)C(C)C (some centres unmarked) [EC1393]	300	600	2.2	–	0.25	–
N.N.[Cl][Pt][Cl] [cisplatin, reference compound]	–	–	–	–	–	partial responses (PRs) (KB-CR tumors): no PRs
N=c1[nH]c(N)nc2ncc(CNc3ccc(C(=O)N[C@@H](CCC(=O)NNC(=O)OCCSSC[C@H](NC(=O)[C@H](CCC(=O)NC[C@H](O)[C@@H](O)[C@H](O)[C@H](O)CO)NC(=O)[C@H](CCC(=O)O)NC(=O)[C@H](CCC(=O)NC[C@H](O)[C@@H](O)[C@H](O)[C@H](O)CO)NC(=O)[C@H](CCC(=O)O)NC(=O)[C@H](CCC(=O)NC[C@H](O)[C@@H](O)[C@H](O)[C@H](O)CO)NC(=O)CC[C@H](NC(=O)c4ccc(NCc5cnc6nc(N)[nH]c(=O)c6n5)cc4)C(=O)O)C(=O)O)C(=O)O)cc3)nc12 [EC0531, reference compound]	237	355	1.5	Complete	–	MTD at 2 weeks [2]: 0.33 µmol/kg
CCCC(=O)OCN(C(=O)[C@@H](NC(=O)[C@H]1CCCCN1C)C(C)CC)[C@H](C[C@@H](OC(C)=O)c1nc(C(=O)N[C@@H](Cc2ccc(O)cc2)C[C@H](C)C(=O)NNC(=O)OCCSSC[C@@H](NC(=O)[C@H](CC(=O)O)NC(=O)[C@H](CC(=O)O)NC(=O)[C@H](CCCNC(=N)N)NC(=O)[C@H](CC(=O)O)NC(=O)CC[C@H](NC(=O)c2ccc(NCc3cnc4nc(N)[nH]c(=O)c4n3)cc2)C(=O)O)C(=O)O)cs1)C(C)C (some centres unmarked) [EC1548]	78	350	4.4	Complete	0.23	–
